Data reported in patent US20050209319A1, “Treatment of local pain” (XenoPort, Inc., priority 2004, published 2005).
Where two headings read alike, the source gives them in different places.

Tests used:
[1] = Parallel artificial membrane permeability assay (PAMPA); assay type: in vitro ADME; conditions: for Passive permeability in vitro across artificial membranes (in words): PAMPA assays; for Papp at 2 h, 50 µM: PAMPA
Protocol: Artificial membranes were prepared by adding 4 μL of 2% (w/v) dioleoylphosphatidyl-choline in dodecane onto the hydrophobic filters ([…] polyvinylidene fluoride) on the base of the wells of a 96-well donor plate (Millipore, Bedford, Mass.). Gabapentin or a gabapentin prodrug (150 μL of 50 μM solution in 0.1 M Tris buffer, pH 6.5 or pH 7.4) was added to the donor wells in triplicate. The gabapentin prodrug used was 1-{[(α-isobutanoyloxyethoxy)carbonyl]-aminomethyl}-1-cyclohexane acetic acid. The plate was placed onto a 96-well acceptor plate (Agilent, Wilmington, Del.), in which each well contained 400 μL 0.1 M Tris, pH 7.4. Following incubation for two hours at room temperature, samples of the donor and receiver chambers were removed for analysis by LC/MS/MS. The permeability coefficient through the artificial membrane (“Pam”) was calculated using standard methods (Sugano et al., Int. J. Pharm., 2001, 228, pp. 181-188). The artificial membrane permeability coefficient, Pam, of 1-{[(α-isobutanoyloxyethoxy)carbonyl]-aminomethyl}-1-cyclohexane acetic acid was about 5 to 30 times higher than the Pam for gabapentin at the two test pH values as shown in Table 2.

Caco-2 cell monolayers = assay: Permeability across Caco-2 cell monolayers (cultured human epithelial cell monolayer assay); assay type: in vitro ADME; conditions: for Permeability coefficient (Papp) A to B: apical to basolateral; for Permeability coefficient (Papp) A to B / Permeability coefficient (Papp) B to A: donor 100-200 μM, 1 hr at 37° C, apical pH 6.5, basolateral pH 7.4; for Permeability coefficient (Papp) B to A: basolateral to apical
Description: The following comparative test was run to determine the permeability of gabapentin and a prodrug of gabapentin across a cultured monolayer of human mucosal tissue cells (intestinal epithelial cells). Intestinal epithelial cells have an apical side (i.e., the side normally facing the gut lumen) and a basolateral side (i.e., the side normally facing the patient's internal blood carrying tissues). Both the permeability of the compounds through the monolayer of cells from apical to basolateral (A to B) and basolateral to apical (B to A) were measured.
Caco-2 cells were obtained from the ATCC (Manassas, Va.) and cultured as indicated by the supplier. Caco-2 cells were seeded into 24-well transwell plates with 3 μm filters (Corning/Costar, Acton, Mass.) at a density of 500,000 cells/well and allowed to differentiate in the transwell plates for 21 days. The test compounds were dissolved into either pH 6.5 (apical MES (4-morpholineethane sulfonic acid) buffer) or pH 7.4 (basolateral HBSS (Hanks balanced salt solution) buffer) at concentrations of 100 to 200 μM and added to the appropriate chambers. Samples were removed from the receiving chambers at various times and the permeability was measured by determining the concentration of prodrug and gabapentin (produced by esterase cleavage within the epithelial cells) by LC/MS/MS (liquid chromatography/mass spectroscopy/mass spectroscopy). Apparent permeability coefficients (“Papp”) were calculated by standard methods (B. H. Stewart et al., Pharm. Res., 1995, 12, pp. 693-699). Integrity of the monolayer was confirmed by determining the permeability of 3H-inulin. If greater than 0.5% of the inulin was detected in the receiving chamber, the transwells were discarded.

[2] = injection into hindpaw of rats pretreated with 2% formalin injection; cited from earlier work

SMILES | Passive permeability in vitro across artificial membranes (in words) [1] | Permeability coefficient (Pam) pH 6.5 ([1]; donor chamber pH 6.5, 50 μM, two hours at room temperature, acceptor pH 7.4) | Permeability coefficient (Pam) pH 7.4 ([1]; donor chamber pH 7.4, 50 μM, two hours at room temperature, acceptor pH 7.4) | Passive permeability in vitro through Caco-2 cell monolayers (in words) (Caco-2 cell monolayers) | Permeability coefficient (Papp) A to B (Caco-2 cell monolayers) | Permeability coefficient (Papp) B to A (Caco-2 cell monolayers) | Papp compared with the Papp for gabapentin (Caco-2 cell monolayers; from the basolateral to the apical side) | Papp at 2 h, 50 µM ([1]; donor chamber pH 6.5, 50 μM, two hours at room temperature, acceptor pH 7.4, read-out: Permeability coefficient (Pam) pH 6.5) | Papp at 2 h, 50 µM ([1]; donor chamber pH 7.4, 50 μM, two hours at room temperature, acceptor pH 7.4, read-out: Permeability coefficient (Pam) pH 7.4) | Passive permeability in vitro through Caco-2 cell monolayers (in words) (Caco-2 cell monolayers; Caco-2) | Effect on nociceptive behavior [2]
CC(OC(=O)NCC1(CC(=O)O)CCCCC1)OC(=O)C(C)C (stereo not drawn) [1-{[(α-isobutanoyloxyethoxy)carbonyl]-aminomethyl}-1-cyclohexane acetic acid] | relatively high passive permeability | 0.65 (cm/sec) × 10^6 | 0.095 (cm/sec) × 10^6 | relatively high passive permeability | 31 (cm/sec) × 10^6 | 5.7 (cm/sec) × 10^6 | significantly higher |  |  |  | 
NCC1(CC(=O)O)CCCCC1 [Gabapentin] | limited passive permeability |  |  |  | 3.2 (cm/sec) × 10^6 | 3.4 (cm/sec) × 10^6 |  | 0.02 ×10⁻⁶ cm/s | 0.026 ×10⁻⁶ cm/s | limited passive permeability | significantly reduced nociceptive behavior
